“And” between values parts separate entries of the source, which are not always exact repeats. Equal values may be shown once.
Key:
[1] = test system: uro-pathogenic E. coli strain (UPEC strain blaTEM-1); assay: MIC of ampicillin with or without 32 µg/mL TEM3.2 or tazobactam; type: cell-based, Escherichia coli; details: 32 μg/mL of either TEM3.2 or tazobactam
Method: (§1) We also performed a tolerability study using a dose escalation method by administering the peptide at 2, 5, 10, 15, and 20 mg/kg via different parenteral routes: intravenous (IV), intraperitoneal (IP), and subcutaneous (SC) in female C57BL/6JAX mice, aged 8–10 weeks (Suppl Table 4). […] Vehicle alone (0.9% NaCl) was also administered (IV). After 24 h the animals were sacrificed and the bacterial load in the bladder, kidney, and ureter was quantified by determining the number of colony-forming units (CFU) per mL of tissue extract (Fig. 7E–G).
Determination of MIC values was performed using the broth microdilution method according to the EUCAST guideline, which was performed in 96-well polystyrene flat-bottom microtiter plates (BD Biosciences). Briefly, a single colony was inoculated into 5 mL Difco™ Mueller–Hinton Broth (BD Biosciences Ref 275730) and grown to the end-exponential growth phase in a shaking incubator at 37 °C. Cultures were subsequently diluted to a MacFarland (0.5 optical density) to reach 10^6 CFU/mL in fresh MHB medium. 50 µl of different concentrations of peptides ranging from 128 to 2 µg/mL were serially diluted to the sterile 96-well plate in MHB. 50 µL of the diluted bacteria in MHB were next pipetted into 96-well plates to reach the final volume of 100 µL. The bacteria grown with the maximum concentration of carrier and medium were considered positive and negative controls, respectively. The plates were statically incubated overnight at 37 °C to allow bacterial growth. OD was measured at 590 nm using a multipurpose ultraviolet–visible plate reader, and the absorbance of the bacterial growth was measured using an absorbance reader.

[2] = test system: E. coli strain lacking TEM (ATCC 25922); assay: Structured illumination microscopy, inclusion bodies in strain lacking TEM; type: cell-based, Escherichia coli; details: 12 μM, 120 min, pFTAA stain, SIM
Text: Fig. 5 Induction of aggregation in cells. […] A single representative image is shown. […] A single representative image is shown. C SIM and brightfield images as in A, but for E. coli ATCC strain. […] A single representative image is shown. […] A single representative blot is shown. […] The corrected P-values were 0.6091, 0.0029, 0.0027, <0.0001, and 0.9992, from left to right. […] Statistics exactly as in E, but from 3 independent experiments. The corrected P-values were 0.8753, 0.9796, 0.0001, 0.0003, and 0.0003, from left to right. Source data are provided as a Source Data file.
The bacterial cultures were washed with PBS, and the number of bacteria was adjusted to 10^8–10^9 cells/mL. […] Then, cells were treated with LCO dyes (pFTAA; Amytacker^TM680 or Amytacker^TM545: final concentration of 0.5 µM; Ebba Biotech, Sweden) for at least 90 min. The absorption, emission, and excitation spectra for each dye were measured based on the standard Ebbabiotec advice (ebbabiotech.com).
Bacteria were fixed by adding 2.5% paraformaldehyde and 0.04 % glutaraldehyde (final concentrations) to the culture media, followed by incubation at room temperature for 15 min and 30 min on ice. Bacteria were then washed in PBS and resuspended in GTE buffer (50 mM glucose, 25 mM Tris, and 10 mM EDTA, pH 8.0). Directly preceding microscopic analysis, cells were transferred to a glass slide and covered with a coverslip. […]

human erythrocytes = assay: Hemolysis; details: 2 h at 37 °C, normalized to 1% triton
Method: (§2) Fig. 7 Evaluation of in vivo use of peptides that induce the aggregation of TEM beta-lactamase. A Lysis of human erythrocytes (hemolysis) was assessed in the presence of the indicated concentrations of TEM3.2 for 2 h at 37 °C, and normalized to the value obtained with 1% of the detergent triton. […] B Cell viability using the CellTiter Blue assay of HeLa cells treated for 24 h with the indicated concentrations TEM 3.2 at 37 °C. […] DAPI (4’,6-diamidino-2-phenylindole) is blue, while CellMask is red. D Experimental workflow of the in vivo model used in this study. E–G Bacterial load of indicated organs of female C57BL/6JAX mice with a urinary tract infection with E. coli strain UZ_TEM104, treated with 30 mg/kg penicillin (oral) as well 10 mg/kg tazobactam (oral) or 10 mg/kg TEM3.2 via the indicated treatment route. IV intravenous, IP intraperitoneal, SC subcutaneously. The data shown is from a single experiment with 12 animals for each group. The result for each animal is shown as a dot. […] The statistically significant differences were determined using ANOVA, followed by Dunnett’s multiple comparison test. […] Source data are provided as a Source Data file.

[3] = test system: uro-pathogenic E. coli strain (UPEC strain blaTEM-1); assay: Urinary tract infection model, bacterial load in bladder, kidney, ureter; type: in vivo, female C57BL/6JAX mice; parameters: bacterial load, Ureters / bacterial load, Bladder / bacterial load, Kindey: unit: CFU per mL of tissue extract; details: each column one mouse
Method: as §2, §1
To test the efficacy of the peptides, a urinary tract infection model was performed as described previously. Briefly, female C57BL/6Jax mice female mice were deprived of water for at least 1 h. Then, they were anesthetized by IP administration of the mixture of ketamine (Nimatek)/xylazine (XYL-M 2% BE-V170581). The bladder of the mouse was massaged with fingers and pushed down gently to expel the remaining urine. Mice were slowly inoculated urethrally with 50 µL of a bacterial suspension slowly over 5 s to avoid vesicoureteral reflux (10^8 CFU/ mouse) using a sterile catheter (pediatric intravenous-access cannula (GS391350)). The catheter was removed directly after inoculation. After surgery, the animals were visually monitored for full recovery. After 1 h post inoculation, all mice received Ampicillin (30 mg/kg_PO-orally) and at the same time 3 groups of animals received the peptides via different administration routes (10 mg/kg_IV—intravenous; IP—intraperitoneal or SC—sub-cutaneous) and the positive control groups received tazobactam (10 mg/kg, PO). The negative control groups received vehicle or saline (IV administration). 2 h post inoculation, all mice received a second injection with the same concentration of each treatment as explained above. Twenty-four hours post-infection, mice were sacrificed and organs (kidney, bladder, ureter) were washed with PBS and were homogenized (Thermo Savant FastPrep FP120 Homogenizer/24 s). The homogenized tissues were serially diluted and cultured on blood agar plates. The plates were incubated overnight at 37 °C, and the number of bacteria was measured by CFU value.

Ac-RLTAFLHNRRPRLTAFLRQRR-NH2 [TEM3.2]
MIC Ampicillin in the presence of additive [1]: 25 µg/mL | inclusion body formation (in words) [2]: only very limited inclusion body formation | hemolysis (in words) (human erythrocytes): not hemolytic to human erythrocytes | bacterial load, Bladder ([3]; group IP): 833.333 (2×) and 4533.33 and 14866.7 and 4066.67 and 2533.33 and 900 and 1 (2×) and 37733.3 and 300 (2×) | bacterial load, Kindey ([3]; group IP): 3566.67 and 133.333 and 27833.3 and 2666.67 and 1 (5×) and 4300 and 1700 and 2600 | bacterial load, Ureters ([3]; group IP): 6333.33 and 33.3333 and 9933.33 and 233.333 and 1 (5×) and 1166.67 and 133.333 and 2500 | bacterial load, Bladder ([3]; group IV): 9200 and 1 (3×) and 6366.67 and 4033.33 and 1500 and 566.667 and 2833.33 and 266.667 and 66.6667 and 1833.33 | bacterial load, Kindey ([3]; group IV): 1333.33 and 50433.3 and 24133.3 and 22233.3 and 400 (2×) and 1 (2×) and 29 and 6466.67 and 333.333 and 1900 | bacterial load, Ureters ([3]; group IV): 10766.7 and 11733.3 and 2766.67 and 2633.33 and 1 (4×) and 15700 and 9366.67 and 766.667 and 233.333 | bacterial load, Bladder ([3]; group Sub): 20866.7 and 166.667 and 3866.67 and 32100 and 933.333 and 300 and 1 (2×) and 1600 and 1500 and 366.667 and 133.333 | bacterial load, Kindey ([3]; group Sub): 18933.3 and 1 (6×) and 5766.67 and 66.6667 and 3300 and 4300 and 466.667 | bacterial load, Ureters ([3]; group Sub): 5500 and 1 (6×) and 5866.67 and 13433.3 and 2800 and 333.333 and 900

Reference: paper PMC10492782, “Exploiting the aggregation propensity of beta-lactamases to design inhibitors that induce enzyme misfolding” (Nature Communications, 2023)
